In the supplement of paper PMC10307832:

Columns and labels:
Assay in all cases: relative viability (nuclei count vs DMSO), 5 days (fraction); higher = more cells survive
Venetoclax + Pemetrexed = compound: CC1(C)CCC(CN2CCN(c3ccc(C(=O)NS(=O)(=O)c4ccc(NCC5CCOCC5)c([N+](=O)[O-])c4)c(Oc4cnc5[nH]ccc5c4)c3)CC2)=C(c2ccc(Cl)cc2)C1 [Venetoclax] + Nc1nc2[nH]cc(CCc3ccc(C(=O)N[C@@H](CCC(=O)O)C(=O)O)cc3)c2c(=O)[nH]1 [Pemetrexed] (partner 0.2 µM)
In short: (§1)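 Lung cancer cell lines were seeded in 1536-well plates and dosed by pin tool the next day, with either a single drug or a fixed anchor-drug dose combined with five library-drug doses (not always all listed) spaced in √10 steps. Five days later, one step fixed the cells and stained their nuclei (final 0.05% Triton X-100, 1% formaldehyde, 1 ug/ml Hoechst), and nuclei were counted on 4× images. Relative viability is the nuclei count in treated wells divided by the count in vehicle wells, and each value is the median of duplicate plates.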

Selumetinib + Vorinostat = compound: Cn1cnc2c(F)c(Nc3ccc(Br)cc3Cl)c(C(=O)NOCCO)cc21 [Selumetinib] + O=C(CCCCCCC(=O)Nc1ccccc1)NO [Vorinostat] (partner 1 µM)
In short: as §1

Venetoclax + Olaparib = compound: CC1(C)CCC(CN2CCN(c3ccc(C(=O)NS(=O)(=O)c4ccc(NCC5CCOCC5)c([N+](=O)[O-])c4)c(Oc4cnc5[nH]ccc5c4)c3)CC2)=C(c2ccc(Cl)cc2)C1 [Venetoclax] + O=C(c1cc(Cc2n[nH]c(=O)c3ccccc23)ccc1F)N1CCN(C(=O)C2CC2)CC1 [Olaparib] (partner 8 µM)
In short: as §1

Selumetinib + Pictilisib = compound: Cn1cnc2c(F)c(Nc3ccc(Br)cc3Cl)c(C(=O)NOCCO)cc21 [Selumetinib] + CS(=O)(=O)N1CCN(Cc2cc3nc(-c4cccc5[nH]ncc45)nc(N4CCOCC4)c3s2)CC1 [Pictilisib] (partner 1 µM)
In short: as §1

Row | Cell Line | relative viability (Venetoclax + Pemetrexed; first compound 0.01 µM) | relative viability (Venetoclax + Pemetrexed; first compound 0.03162 µM) | relative viability (Venetoclax + Pemetrexed; first compound 0.1 µM) | relative viability (Venetoclax + Pemetrexed; first compound 0.3162 µM) | relative viability (Venetoclax + Pemetrexed; first compound 1 µM) | relative viability (Selumetinib + Vorinostat; first compound 0.02 µM) | relative viability (Selumetinib + Vorinostat; first compound 0.06325 µM) | relative viability (Selumetinib + Vorinostat; first compound 0.2 µM) | relative viability (Selumetinib + Vorinostat; first compound 0.6325 µM) | relative viability (Venetoclax + Olaparib; first compound 0.01 µM) | relative viability (Venetoclax + Olaparib; first compound 0.03162 µM) | relative viability (Venetoclax + Olaparib; first compound 0.1 µM) | relative viability (Venetoclax + Olaparib; first compound 0.3162 µM) | relative viability (Venetoclax + Olaparib; first compound 1 µM) | relative viability (Selumetinib + Pictilisib; first compound 0.02 µM) | relative viability (Selumetinib + Pictilisib; first compound 0.06325 µM) | relative viability (Selumetinib + Pictilisib; first compound 0.2 µM) | relative viability (Selumetinib + Pictilisib; first compound 0.6325 µM)
1 | NCI-H2228 | 0.341 | 0.331 | 0.36 | 0.272 | 0.343 | 0.744 | 0.627 | 0.63 | 0.619 | 0.519 | 0.832 | 0.519 | 0.776 | 0.692 | 0.247 | 0.283 | 0.354 | 0.314
2 | NCI-H2347 | 0.486 | 0.425 | 0.437 | 0.438 | 0.444 | 0.521 | 0.467 | 0.36 | 0.283 | 0.578 | 0.558 | 0.514 | 0.633 | 0.537 | 0.641 | 0.314 | 0.239 | 0.258
3 | NCI-H2405 | 0.98 | 1.16 | 0.979 | 1.06 | 0.963 | 1.18 | 1.04 | 0.818 | 0.987 | 0.833 | 0.881 | 0.915 | 0.929 | 0.78 | 0.382 | 0.303 | 0.269 | 0.26
4 | NCI-H3122 | 0.179 | 0.2 | 0.199 | 0.188 | 0.198 | 0.988 | 0.651 | 0.84 | 0.651 | 0.644 | 0.671 | 0.637 | 0.667 | 0.603 | 0.396 | 0.298 | 0.206 | 0.211
5 | PC-3 [JPC-3] | 1.05 | 1.45 | 1.18 | 1.26 | 1.01 | 1.02 | 0.663 | 0.748 | 0.734 | 1.15 | 1.19 | 1.21 | 1.15 | 1.04 | 0.711 | 0.718 | 0.456 | 0.503
6 | PC-14 | 0.154 | 0.135 | 0.13 | 0.14 | 0.143 | 0.835 | 0.667 | 0.688 | 0.504 | 0.256 | 0.297 | 0.245 | 0.302 | 0.226 | 0.723 | 0.551 | 0.548 | 0.519
7 | RERF-LC-KJ | 0.473 | 0.487 | 0.45 | 0.438 | 0.506 | 0.649 | 0.656 | 0.629 | 0.637 | 0.883 | 0.839 | 0.934 | 0.935 | 0.847 | 0.527 | 0.476 | 0.44 | 0.504
8 | SK-LU-1 | 0.97 | 1.05 | 1.03 | 0.966 | 0.867 | 0.779 | 0.717 | 0.686 | 0.443 | 0.447 | 0.665 | 0.477 | 0.574 | 0.623 | 0.618 | 0.493 | 0.459 | 0.258
9 | SK-MES-1 | 0.918 | 1.08 | 0.994 | 0.956 | 0.754 | 0.938 | 0.85 | 0.853 | 0.65 | 0.732 | 0.918 | 0.66 | 0.737 | 0.664 | 0.324 | 0.266 | 0.196 | 0.233
10 | SW 1573 | 0.784 | 0.808 | 0.784 | 0.843 | 0.846 | 0.652 | 0.582 | 0.703 | 0.914 | 0.581 | 0.516 | 0.479 | 0.473 | 0.399 | 0.366 | 0.427 | 0.342 | 0.386
